Measurements from ChEMBL document CHEMBL1151757, “Synthesis, radiosynthesis, and biological evaluation of fluorine-18-labeled 2beta-carbo(fluoroalkoxy)-3beta-(3'-((Z)-2-haloethenyl)phenyl)nortropanes: candidate radioligands for in vivo imaging of the serotonin transporter with positron emission tomography” (J Med Chem, 2008).

What was measured:
[1] = Drug uptake in anesthetized cynomolgus monkey brain occipital lobe after 35 mins postinjection; format: ADME, organism-based, Macaca fascicularis; conditions: in vivo
[2] = Drug uptake in anesthetized cynomolgus monkey brain occipital lobe after 125 mins postinjection; format: ADME, organism-based, Macaca fascicularis; conditions: in vivo
[3] = Drug uptake in anesthetized cynomolgus monkey brain occipital lobe after 225 mins postinjection; format: ADME, organism-based, Macaca fascicularis; conditions: in vivo, 3.75 h
[4] = Drug uptake in anesthetized cynomolgus monkey brain frontal lobe after 165 mins postinjection; format: ADME, organism-based, Macaca fascicularis; conditions: in vivo, 2.75 h
[5] = Ratio of drug uptake in occipital lobe to cerebellum in anesthetized cynomolgus monkey after 115 mins postinjection; format: ADME, organism-based, Macaca fascicularis; conditions: in vivo
[6] = Ratio of drug uptake in occipital lobe to cerebellum in anesthetized cynomolgus monkey after 175 mins postinjection; format: ADME, organism-based, Macaca fascicularis; conditions: in vivo
[7] = tested on: Putamen; assay: Drug uptake in anesthetized cynomolgus monkey brain putamen after 135 mins postinjection; format: ADME, organism-based, Macaca fascicularis; conditions: in vivo, 2.25 h
[8] = tested on: Putamen; assay: Drug uptake in anesthetized cynomolgus monkey brain putamen after 192.5 mins postinjection; format: ADME, organism-based, Macaca fascicularis; conditions: in vivo
[9] = Drug uptake in awake rhesus monkey brain frontal lobe after 13.5 mins postinjection; format: ADME, organism-based, Macaca mulatta; conditions: in vivo, 0.225 h
[10] = Drug uptake in awake rhesus monkey brain medulla after 10.5 mins postinjection; format: ADME, organism-based, Macaca mulatta; conditions: in vivo, 0.175 h
[11] = tested on: Midbrain; assay: Drug uptake in anesthetized cynomolgus monkey brain midbrain after 145 mins postinjection; format: ADME, organism-based, Macaca fascicularis; conditions: in vivo
[12] = tested on: Midbrain; assay: Drug uptake in anesthetized cynomolgus monkey brain midbrain after 182.5 mins postinjection; format: ADME, organism-based, Macaca fascicularis; conditions: in vivo
[13] = tested on: Pons; assay: Drug uptake in anesthetized cynomolgus monkey brain pons after 9.5 mins postinjection; format: ADME, organism-based, Macaca fascicularis; conditions: in vivo
[14] = tested on: Pons; assay: Drug uptake in anesthetized cynomolgus monkey brain pons after 15.5 mins postinjection; format: ADME, organism-based, Macaca fascicularis; conditions: in vivo
[15] = Drug uptake in awake rhesus monkey brain pons after 25 mins postinjection; format: ADME, organism-based, Macaca mulatta; conditions: in vivo
[16] = Drug uptake in awake rhesus monkey brain midbrain after 7.5 mins postinjection; format: ADME, organism-based, Macaca mulatta; conditions: in vivo, 0.125 h
[17] = tested on: Pons; assay: Drug uptake in anesthetized cynomolgus monkey brain pons after 135 mins postinjection; format: ADME, organism-based, Macaca fascicularis; conditions: in vivo, 2.25 h
[18] = tested on: Pons; assay: Drug uptake in anesthetized cynomolgus monkey brain pons after 182.5 mins postinjection; format: ADME, organism-based, Macaca fascicularis; conditions: in vivo
[19] = tested on: Pons; assay: Drug uptake in anesthetized cynomolgus monkey brain pons after 187.5 mins postinjection; format: ADME, organism-based, Macaca fascicularis; conditions: in vivo, 3.125 h
[20] = tested on: Pons; assay: Drug uptake in anesthetized cynomolgus monkey brain pons after 202.5 mins postinjection; format: ADME, organism-based, Macaca fascicularis; conditions: in vivo, 3.375 h
[21] = tested on: Medulla; assay: Drug uptake in anesthetized cynomolgus monkey brain medulla after 22.5 mins postinjection; format: ADME, organism-based, Macaca fascicularis; conditions: in vivo, 0.375 h
[22] = Ratio of drug uptake in putamen to cerebellum in awake rhesus monkey after 45 mins postinjection; format: ADME, organism-based, Macaca mulatta; conditions: in vivo, 0.75 h
[23] = Ratio of drug uptake in caudate to cerebellum in awake rhesus monkey after 25 mins postinjection; format: ADME, organism-based, Macaca mulatta; conditions: in vivo
[24] = Drug uptake in awake rhesus monkey brain putamen after 95 mins postinjection; format: ADME, organism-based, Macaca mulatta; conditions: in vivo
[25] = Drug uptake in awake rhesus monkey brain caudate after 10.5 mins postinjection; format: ADME, organism-based, Macaca mulatta, Caudate nucleus; conditions: in vivo, 0.175 h
[26] = Drug uptake in awake rhesus monkey brain caudate after 13.5 mins postinjection; format: ADME, organism-based, Macaca mulatta, Caudate nucleus; conditions: in vivo, 0.225 h
[27] = Ratio of drug uptake in putamen to cerebellum in anesthetized cynomolgus monkey after 165 mins postinjection; format: ADME, organism-based, Macaca fascicularis; conditions: in vivo, 2.75 h
[28] = Ratio of drug uptake in pons to cerebellum in awake rhesus monkey after 7.5 mins postinjection; format: ADME, organism-based, Macaca mulatta; conditions: in vivo, 0.125 h
[29] = tested on: Medulla; assay: Drug uptake in anesthetized cynomolgus monkey brain medulla after 235 mins postinjection; format: ADME, organism-based, Macaca fascicularis; conditions: in vivo
[30] = Drug uptake in anesthetized cynomolgus monkey brain cerebellum after 22.5 mins postinjection; format: ADME, organism-based, Macaca fascicularis; conditions: in vivo, 0.375 h
[31] = Drug uptake in anesthetized cynomolgus monkey brain cerebellum after 65 mins postinjection; format: ADME, organism-based, Macaca fascicularis; conditions: in vivo
[32] = tested on: Caudate; assay: Drug uptake in anesthetized cynomolgus monkey brain caudate after 1.5 mins postinjection; format: ADME, organism-based, Macaca fascicularis, Caudate nucleus; conditions: in vivo, 0.025 h
[33] = tested on: Caudate; assay: Drug uptake in anesthetized cynomolgus monkey brain caudate after 6.5 mins postinjection; format: ADME, organism-based, Macaca fascicularis, Caudate nucleus; conditions: in vivo
[34] = tested on: Caudate; assay: Drug uptake in anesthetized cynomolgus monkey brain caudate after 45 mins postinjection; format: ADME, organism-based, Macaca fascicularis, Caudate nucleus; conditions: in vivo, 0.75 h
[35] = tested on: Caudate; assay: Drug uptake in anesthetized cynomolgus monkey brain caudate after 95 mins postinjection; format: ADME, organism-based, Macaca fascicularis, Caudate nucleus; conditions: in vivo
[36] = tested on: Caudate; assay: Drug uptake in anesthetized cynomolgus monkey brain caudate after 155 mins postinjection; format: ADME, organism-based, Macaca fascicularis, Caudate nucleus; conditions: in vivo
[37] = tested on: Caudate; assay: Drug uptake in anesthetized cynomolgus monkey brain caudate after 165 mins postinjection; format: ADME, organism-based, Macaca fascicularis, Caudate nucleus; conditions: in vivo, 2.75 h
[38] = tested on: Caudate; assay: Drug uptake in anesthetized cynomolgus monkey brain caudate after 187.5 mins postinjection; format: ADME, organism-based, Macaca fascicularis, Caudate nucleus; conditions: in vivo, 3.125 h
[39] = tested on: Putamen; assay: Drug uptake in anesthetized cynomolgus monkey brain putamen after 0.5 mins postinjection; format: ADME, organism-based, Macaca fascicularis; conditions: in vivo
[40] = tested on: Putamen; assay: Drug uptake in anesthetized cynomolgus monkey brain putamen after 3.5 mins postinjection; format: ADME, organism-based, Macaca fascicularis; conditions: in vivo
[41] = Drug uptake in awake rhesus monkey brain cerebellum after 25 mins postinjection; format: ADME, organism-based, Macaca mulatta; conditions: in vivo
[42] = tested on: Putamen; assay: Drug uptake in anesthetized cynomolgus monkey brain putamen after 75 mins postinjection; format: ADME, organism-based, Macaca fascicularis; set-up: unit not given here; conditions: in vivo, 1.25 h
[43] = tested on: Thalamus; assay: Drug uptake in anesthetized cynomolgus monkey brain thalamus after 105 mins postinjection; format: ADME, organism-based, Macaca fascicularis; set-up: unit not given here; conditions: in vivo, 1.75 h
[44] = tested on: Thalamus; assay: Drug uptake in anesthetized cynomolgus monkey brain thalamus after 125 mins postinjection; format: ADME, organism-based, Macaca fascicularis; set-up: unit not given here; conditions: in vivo
[45] = tested on: Thalamus; assay: Drug uptake in anesthetized cynomolgus monkey brain thalamus after 175 mins postinjection; format: ADME, organism-based, Macaca fascicularis; set-up: unit not given here; conditions: in vivo
[46] = tested on: Thalamus; assay: Drug uptake in anesthetized cynomolgus monkey brain thalamus after 192.5 mins postinjection; format: ADME, organism-based, Macaca fascicularis; conditions: in vivo
[47] = tested on: Midbrain; assay: Drug uptake in anesthetized cynomolgus monkey brain midbrain after 1.5 mins postinjection; format: ADME, organism-based, Macaca fascicularis; set-up: unit not given here; conditions: in vivo, 0.025 h
[48] = tested on: Midbrain; assay: Drug uptake in anesthetized cynomolgus monkey brain midbrain after 9.5 mins postinjection; format: ADME, organism-based, Macaca fascicularis; set-up: unit not given here; conditions: in vivo
[49] = tested on: Midbrain; assay: Drug uptake in anesthetized cynomolgus monkey brain midbrain after 22.5 mins postinjection; format: ADME, organism-based, Macaca fascicularis; set-up: unit not given here; conditions: in vivo, 0.375 h
[50] = tested on: Midbrain; assay: Drug uptake in anesthetized cynomolgus monkey brain midbrain after 55 mins postinjection; format: ADME, organism-based, Macaca fascicularis; set-up: unit not given here; conditions: in vivo
[51] = Ratio of drug uptake in midbrain to cerebellum in anesthetized cynomolgus monkey after 145 mins postinjection; format: ADME, organism-based, Macaca fascicularis; conditions: in vivo

**Q.** With `O=C(OCC[18F])C1C2CCC(CC1c1cccc(/C=C\I)c1)N2` (stereo unspecified) as the molecule, how does the Drug uptake [1] read?
**A.** 3.15

**Q.** And the Drug uptake [2]?
**A.** 1.97

**Q.** What about the Drug uptake [3] of the same molecule?
**A.** 1.22

**Q.** And the Drug uptake [4]?
**A.** 1.81

**Q.** And the Ratio [5]?
**A.** 0.9

**Q.** And the Ratio [6]?
**A.** 1

**Q.** And the Drug uptake [7]?
**A.** 3.44

**Q.** And the Drug uptake [8]?
**A.** 2.67

**Q.** What about the Drug uptake [9] of the same molecule?
**A.** 0.08

**Q.** And the Drug uptake [10]?
**A.** 0.09

**Q.** And the Drug uptake [11]?
**A.** 3.85

**Q.** What about the Drug uptake [12] of the same molecule?
**A.** 3.4

**Q.** And the Drug uptake [13]?
**A.** 2.4

**Q.** And the Drug uptake [14]?
**A.** 2.82

**Q.** What about the Drug uptake [15] of the same molecule?
**A.** 0.12

**Q.** And the Drug uptake [16]?
**A.** 0.08

**Q.** And the Drug uptake [17]?
**A.** 2.65

**Q.** What about the Drug uptake [18] of the same molecule?
**A.** 2.17

**Q.** And the Drug uptake [19]?
**A.** 2.31

**Q.** And the Drug uptake [20]?
**A.** 2.25

**Q.** And the Drug uptake [21]?
**A.** 3.83

**Q.** What about the Ratio [22] of the same molecule?
**A.** 1.5

**Q.** What about the Ratio [23] of the same molecule?
**A.** 1.2

**Q.** And the Drug uptake [24]?
**A.** 0.16

**Q.** And the Drug uptake [25]?
**A.** 0.1

**Q.** What about the Drug uptake [26] of the same molecule?
**A.** 0.09

**Q.** What about the Ratio [27] of the same molecule?
**A.** 1.8

**Q.** And the Ratio [28]?
**A.** 1

**Q.** What about the Drug uptake [29] of the same molecule?
**A.** 2.32

**Q.** And the Drug uptake [30]?
**A.** 4.02

**Q.** What about the Drug uptake [31] of the same molecule?
**A.** 3.23

**Q.** What about the Drug uptake [32] of the same molecule?
**A.** 0.08

**Q.** What about the Drug uptake [33] of the same molecule?
**A.** 2.02

**Q.** And the Drug uptake [34]?
**A.** 3.67

**Q.** What about the Drug uptake [35] of the same molecule?
**A.** 3.39

**Q.** What about the Drug uptake [36] of the same molecule?
**A.** 2.62

**Q.** What about the Drug uptake [37] of the same molecule?
**A.** 2.56

**Q.** What about the Drug uptake [38] of the same molecule?
**A.** 2.26

**Q.** What about the Drug uptake [39] of the same molecule?
**A.** 0

**Q.** What about the Drug uptake [40] of the same molecule?
**A.** 0.96

**Q.** And the Drug uptake [41]?
**A.** 0.11

**Q.** And the Drug uptake [42]?
**A.** 4.28

**Q.** And the Drug uptake [43]?
**A.** 3.74

**Q.** What about the Drug uptake [44] of the same molecule?
**A.** 3.41

**Q.** What about the Drug uptake [45] of the same molecule?
**A.** 2.76

**Q.** What about the Drug uptake [46] of the same molecule?
**A.** 2.56

**Q.** What about the Drug uptake [47] of the same molecule?
**A.** 0.11

**Q.** What about the Drug uptake [48] of the same molecule?
**A.** 3.52

**Q.** What about the Drug uptake [49] of the same molecule?
**A.** 4.56

**Q.** What about the Drug uptake [50] of the same molecule?
**A.** 4.91

**Q.** What about the Ratio [51] of the same molecule?
**A.** 2.1
